Assays:
[1] = reported in U.S. Pat. No. 6,110,940; converts into Form Alpha; cited from earlier work
[2] = Prior-art experiments to convert Beta form to Alpha form or amorphous, repeated under exactly the same conditions; format: physicochemical; details: conditions of U.S. Pat. No. 6,110,940 (example 2) and WO2008/137134 (examples 16-19; 2, 7, 8, 12, 13)
Procedure: In addition, the same experiments described in U.S. Pat. No. 6,110,940 (example 2) and WO2008/137134 (examples 16, 17, 18, 19) to convert Eletriptan Beta form to Alpha form and those described in WO2008/137134 (examples 2, 7, 8, 12 and 13) to convert Eletriptan Beta form to amorphous were carried out on Eletriptan Hydrobromide form Beta of invention, applying exactly the same conditions. […] There results confirms the stability of Eletriptan hydrobromide Beta form of invention and his different behaviour in comparison with the same form described in the State of the Art.

[3] = DSC study with heating/cooling cycles to convert Beta form to other forms; format: physicochemical
[4] = Hygroscopicity test as described in the European Pharmacopoeia 5.0; format: physicochemical; details: 25° C., 80% rel. humidity, 24 h
Procedure: Eletriptan hydrobromide Beta stable form obtained according to the inventive process has been subject to the hygroscopicity test as described in the European Pharmacopoeia 5.0 (25° C., 80% rel. humidity, 24 h).

[5] = Stability tests of Eletriptan hydrobromide Beta form polymorph in various solvents, temperatures and times; format: physicochemical; details: all experiments of the 1st table: various solvents, RT to 80° C. or heating, 5-48 hr; DSC trace
Text: Eletriptan hydrobromide Beta form obtained according to the inventive process has been subject to a series of experiments to assess its stability against the conversion into Form Alpha of higher melting point or in amorphous.
These experiments have been performed in various solvents and at various temperature and time conditions. […] The DSC trace is the same for all the product prepared according to Example 18 and is the same of that of Beta polymorph.

Row | Structure (SMILES) | stability of polymorph [1] | polymorphic form obtained [2] | polymorphic form obtained [3] | hygroscopicity (classification) [4] | hygroscopicity (value) [4] [%] | stability against conversion into Form Alpha, amorphous or other forms [5]
1 | Br.CN1CCC[C@@H]1Cc1c[nH]c2ccc(CCS(=O)(=O)c3ccccc3)cc12 [Form Beta of Eletriptan hydrobromide] | not stable | – | – | – | – | –
2 | Br.CN1CCC[C@@H]1Cc1c[nH]c2ccc(CCS(=O)(=O)c3ccccc3)cc12 [Eletriptan hydrobromide Form Beta, 3-{[(2R)-1-methylpyrrolidin-2-yl]methyl}-5-[2-(phenylsulfonyl)ethyl]-1H-indole hydrobromide] | – | provided only Eletriptan hydrobromide form Beta | provided always Form Beta | not hygroscopic | 0.1 | did not convert into Form A, amorphous or other crystalline forms or in any hydrated form

Reference: patent publication US8426612B2, “Synthesis of 3-{[(2R)-1-methylpyrrolidin-2-yl]methyl}-5[2-(phenylsulfonyl)ethyl]-1H-indole” (F.I.S. Fabbrica Italiana Sintetici S.p.A., priority 2009, dated 2013)
